Columns and labels:
ALS MNs [1] = assay: Metabolic flux analysis, MitoStress assay (OCR) in ALS MNs; type: cell-based, human; details: for ATP production / basal respiration / spare respiratory capacity: NAM 0.5 mM, siRNA 3 days; for ATP production: C12 5 μM; for mitochondrial respiration / metabolic profile: day 31, C12 5 μM, Riluzole 5 μM, Edaravone 100 μM
Method: (§1) After dissociating with Accutase, cells were blocked with solution containing phosphate-buffered saline, 0.5% bovine serum albumin (BSA) and 2 mM EDTA. The cells were then incubated with CD171-APC antibody (Miltenyi Biotec) and PSA-NCAM-APC antibody (Miltenyi Biotec) for 10 mins at 4° C. After washing, the cells were then incubated with anti-APC microbeads for 15 minutes at 4° C. The cells were then washed twice and filtered prior to loading into the separation column (LS column) that was attached to a magnetic stand (all from Miltenyi Biotec). After three rounds of washing, the column was removed from the magnetic stand and labelled cells were eluted in culture media for replating.
(§2) Motor neuron cultures at day 27 were dissociated with Accutase and seeded at 2 million cells per well in a 6-well plate. At day 28, non-targeting siRNA or siRNAs were individually complexed with Lipofectamine RNAiMAX following manufacturer's instructions and added to the motor neuron cultures. For each well, 10 pmol of siRNAs and 8 μl of Lipofectamine RNAiMAX were used. Cells were either harvested for RNA and protein analyses, fixed for immunostaining or metabolic flux analysis were performed 3 days after siRNA transfection.

ALS MNs [2] = assay: Neuronal morphology (soma size, primary neurites) in ALS MNs; type: cell-based, human; details: for number of primary neurites / soma size: day 31; for neuronal morphologies: day 31, NAM 0.5 mM, C12 5 μM, Riluzole 5 μM, Edaravone 100 μM, siRNA
Method: Cells were fixed in 4% paraformaldehyde for 15 minutes, permeabilized in 0.1% Triton X-100 for 15 minutes and blocked in buffer containing 5% FBS and 1% BSA for an hour at room temperature. Primary antibodies (Table S4) were diluted in blocking buffer and incubated overnight at 4° C. Cells were washed thrice in PBS. The respective secondary antibodies were diluted 1:1500 in blocking buffer and incubated at room temperature, in the dark, for 90 minutes. DAPI was used at 0.1 μg/ml to visualize cellular nuclei.
Images were acquired using the high content microscope Phenix (Perkin Elmer) using the 20× air objective. Image analyses including cell counts and intensity measurements were performed using Columbus (Perkin Elmer).
For primary neurites analysis, neuronal projections from the soma size was determined based on SMI-32 staining. For soma size analysis, cellular nuclei were identified by DAPI, and the cytoplasmic area surrounding the nucleus was determined based on SMI-32 staining. Soma size area was measured by image analysis software (ImageJ, NIH) based on the cytoplasmic area surrounding the nucleus, excluding neuronal projections.

CHOP = assay: qPCR of ER stress transcript CHOP in ALS MN cultures; type: cell-based, human; details: ALS MNs, day 31; C12 5 μM, Riluzole 5 μM, Edaravone 100 μM
Method: (§3) Cells were harvested in Trizol reagent for RNA extraction following manufacturer's instructions. Purified RNA was converted to cDNA using the High-Capacity cDNA Reverse Transcription kit, and quantitative PCR (qPCR) was performed on the QuantStudio 5 Real-Time PCR System using PowerUp™ SYBR™ Green Master Mix (all from Applied Biosystems). Gene expressions were normalized to HPRT and ACTB expression unless otherwise stated.

ALS MNs [3] = assay: Metabolic flux analysis, Glycolysis stress assay (ECAR) in ALS MNs; type: cell-based, human; details: for glycolysis: C12 5 μM, siRNA 3 days
Method: as §2

total MnSOD = assay: Western blot of total MnSOD protein levels in C12-treated MNs; type: cell-based, human; details: BJ-SOD1^L144F MNs, increasing doses of C12, day 31
Method: (§4) Protein lysates were resolved in 12% SDS-PAGE gels or 4-20% precast gels in Tris-Glycine-SDS buffer. Proteins were then transferred to a nitrocellulose membrane and blocked with 5% milk in TBST buffer. Primary antibodies were diluted in 5% milk and incubated with the membranes overnight at 4° C. Membranes were washed thrice in TBST buffer. The corresponding horseradish peroxidase secondary antibodies (Life Technologies) were then diluted 1:5000 in 5% milk and incubated at room temperature for 90 minutes. Blots were washed thrice before exposing to ECL for imaging.

spliced XBP1 (sXBP1) = assay: qPCR of ER stress transcript spliced XBP1 in ALS MN cultures; type: cell-based, human; details: ALS MNs, day 31; C12 5 μM, Riluzole 5 μM, Edaravone 100 μM
Method: as §3

SMA type I (1-38G) MNs = assay: MitoStress assay in SMA type I MNs; type: cell-based, human; details: 5 μM C12
ALS MNs [4] = assay: Motor neuron survival assay (ISL1+ MNs) in ALS iPSC-derived MNs; type: cell-based, human; details: for MN survival (ISL1+ MNs): ALS MNs, treatment from day 28, NAM 0.5 mM, C12 5 μM, Riluzole 5 μM, Edaravone 100 μM, siRNA 10 pmol
Description: Cultures were then fixed with 4% PFA on Day 25, 28, 31 and 35 respectively for quantification of motor neuron survival. Fixed cultures were stained with the motor neuron marker ISL1, and cellular nuclei were counterstained with DAPI before imaging on the high content microscope Phenix (Perkin Elmer). Percentage of ISL1+ cells was normalized to total nuclei number. To calculate normalized survival index, the percentage of ISL1+/DAPI at day 25 was arbitrary set as 1.0, and motor neuron survival on later days were in turn normalized to day 25 cultures.
as §2

mitochondrial Complex I = assay: Complex I activity in ALS MNs; type: cell-based, human; details: day 31, C12
Method: Cell lysates were prepared using Complex I Enzyme Activity Microplate Assay Kit (Abcam), following the manufacturer's instructions. Activity of Complex I was recorded, normalized and quantified based on manufacturer's instructions. Biological triplicates were performed with a minimum of 3 technical replicates each.

[5] = test system: mitochondrial acetyl-lysine proteins; assay: Western blot of acetyl-lysine proteins in purified mitochondrial extracts of ALS MNs; type: cell-based, human; details: panel of ALS MNs, 5 μM C12, day 31
Method: as §4
(§5) Mitochondria from motor neuron cultures were isolated using the MACS technology. Motor neurons culture were first Accutase and wash twice with PBS before resuspending in ice cold Lysis buffer. The cells were then homogenized with a dounce homogenizer (Pestle B) 15 strokes. The homogenate was diluted with 1× separation buffer based on manufacturer's instructions. Anti-TOM22 were added to magnetically label the mitochondria before incubating at 4° C. for 1 hour. The cells were then washed twice and filtered prior to loading into the separation column (LS column) that was attached to a magnetic stand (all from Miltenyi Biotec). After three rounds of washing, the column was removed from the magnetic stand and labelled mitochondria were eluted in storage buffer for downstream applications.

SIRT1 = target: T1, SIRT1 (Homo sapiens, UniProt Q96EB6); assay: Cellular thermal shift assay (CETSA), SIRT1; details: 20 μM C12, 1 hour, intact HEK293T cells, 48-68° C.
T1 sequence (Q96EB6 1-747): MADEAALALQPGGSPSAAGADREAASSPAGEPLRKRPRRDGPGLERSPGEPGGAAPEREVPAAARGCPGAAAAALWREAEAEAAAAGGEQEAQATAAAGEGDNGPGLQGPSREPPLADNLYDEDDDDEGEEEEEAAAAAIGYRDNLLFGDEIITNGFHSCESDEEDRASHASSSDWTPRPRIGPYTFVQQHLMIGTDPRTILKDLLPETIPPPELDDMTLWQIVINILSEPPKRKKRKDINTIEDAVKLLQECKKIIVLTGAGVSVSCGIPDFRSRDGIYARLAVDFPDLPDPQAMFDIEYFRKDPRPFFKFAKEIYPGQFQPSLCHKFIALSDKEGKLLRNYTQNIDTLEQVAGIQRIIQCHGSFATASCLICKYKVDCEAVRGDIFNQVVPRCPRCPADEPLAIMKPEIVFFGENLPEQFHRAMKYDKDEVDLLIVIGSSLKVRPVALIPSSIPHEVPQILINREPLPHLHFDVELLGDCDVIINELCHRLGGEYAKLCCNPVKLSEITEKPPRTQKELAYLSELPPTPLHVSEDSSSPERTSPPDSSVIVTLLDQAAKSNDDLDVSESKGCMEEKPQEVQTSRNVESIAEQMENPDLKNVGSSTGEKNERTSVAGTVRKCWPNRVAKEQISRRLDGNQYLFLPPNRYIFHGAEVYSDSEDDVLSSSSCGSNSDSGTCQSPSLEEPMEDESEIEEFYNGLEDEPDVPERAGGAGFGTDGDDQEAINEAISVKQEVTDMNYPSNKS
Method: CETSA was performed as previously described (3) and HEK293T cells were used to carry out the experiment. […] After the incubation, the cells were harvested, washed, pellet down and resuspended in 1 mL of PBS. Equal amounts of cell suspensions were aliquoted into Eppendorf tubes. The cell suspensions were then heated (48-68° C.) and lysed using 2 cycles of freeze-thawing. The soluble fractions were isolated and analyzed by Western blot analysis as described above.

ALS patients = details: cited from earlier work
ALS MNs [6] = assay: Mitochondrial NAD+ quantification in ALS iPSC-derived MNs; type: cell-based, human; details: 0.5 mM NAM
Method: as §5
(§6) Mitochondria from motor neuron cultures (10 million cells) were isolated using the MACS technology (as described above). Mitochondrial NAD+ was prepared quantified using NAD/NADH-Glo™ Assay (Promega) following manufacturer's instructions. Briefly, isolated mitochondria were first diluted in PBS, bicarbonate base buffer and 1% DTAB in a ratio of 2:1:1. […] After heating, 0.5M of Trizma base was added to the suspension and levels of mitochondrial NAD^+ were recorded, normalized to NAD^+ standard curve and quantified based on manufacturer's instructions (Promega). […]

healthy MNs [7] = assay: Mitochondrial NAD+ quantification in healthy iPSC-derived MNs; type: cell-based, human; details: NAM supplementation
Method: as §5, §6

healthy MNs [8] = assay: Metabolic flux analysis, MitoStress assay (OCR) in healthy MNs; type: cell-based, human
Method: as §1, §2

GCN5L1 = GCN5L1 knockdown by siRNA in iPSC-derived MNs (qPCR); type: cell-based, human; details: day 31, vs non-targeting siRNA
Method: as §2, §3

| Compound | ATP production (ALS MNs [1]; SIRT3 lentivirus day 28-31) | mitochondrial respiration / metabolic profile (ALS MNs [1]) | number of primary neurites (ALS MNs [2]) | soma size (ALS MNs [2]) | neuronal morphologies (ALS MNs [2]) | expression of ER stress transcript CHOP (CHOP) | glycolysis (ALS MNs [3]) | expression of ER stress transcript sXBP1 (spliced XBP1 (sXBP1)) | MN survival (ISL1+ MNs) (ALS MNs [4]) | efficacy in ALS patients (ALS patients) | basal respiration (ALS MNs [1]; SIRT3 lentivirus day 28-31) | spare respiratory capacity (ALS MNs [1]; SIRT3 lentivirus day 28-31) | hyper-glycolytic metabolic profile / phenotype (ALS MNs [3]) | also measured |
| --- | --- | --- | --- | --- | --- | --- | --- | --- | --- | --- | --- | --- | --- | --- |
| COc1ccc(-c2cc3ccc(O)cc3oc2=O)cc1 [C12, 7-hydroxy-3-(4′-methoxyphenyl) coumarin] | rescued ATP production back to healthy levels | promoted mitochondrial respiration | increased number of primary neurites | enlarged soma sizes | improved neuronal morphologies | significantly reduced | reduced glycolysis | significantly reduced | promoted ALS MN survival |  |  |  |  | total MnSOD protein levels (total MnSOD): remains unchanged; metabolic defect (basal respiration, ATP production) (SMA type I (1-38G) MNs): did not improve the metabolic defect; cytotoxicity (ALS MNs [4]; 10 μM C12, ALS MNs (BJ-SOD1^L144F)): cytotoxic; mitochondrial Complex I activity (mitochondrial Complex I): increased mitochondrial Complex I activity; mitochondrial acetyl-lysine signals [5]: significantly reduced; thermal stability of SIRT1 (SIRT1): but not another abundantly expressed sirtuin, SIRT1 |
| CC1=NN(c2ccccc2)C(=O)C1 [Edaravone] |  | did not show any significant changes | no significant change | no significant change | did not improve neuronal morphologies | significantly reduced |  | significantly reduced | promoted ALS MN survival | efficacy only in a small subset of ALS patients |  |  |  |  |
| NC(=O)c1cccnc1 [NAM, Nicotinamide] | significantly improved |  |  |  | healthier neuronal morphologies |  |  |  | promoted ALS MN survival |  | significantly improved | significantly improved | corrected the hyper-glycolytic metabolic profile | mitochondrial NAD+ levels (ALS MNs [6]): significantly elevated; mitochondrial NAD+ levels (healthy MNs [7]): did not elevate; mitochondrial respiration (OCR parameters) (healthy MNs [8]): no significant effects |
| Nc1nc2ccc(OC(F)(F)F)cc2s1 [Riluzole] |  |  |  |  |  | significantly reduced |  | significantly reduced |  | efficacious amongst bulbar-onset ALS patients and not in subjects with limb-onset ALS |  |  |  | lifespan extension (ALS patients; on average): 3 months |
| GCN5L1 siRNA: siRNA against human GCN5L1, Dharmacon J-012580-09-0010 (AGAGGAGGCGAGAGGCUAU; listed as RNA, further chemistry not given here) | rescued ATP production back to healthy levels |  |  |  | healthier neuronal morphologies |  | reduced |  | promoted survival |  | significant improvements | significant improvements | reduced hyper-glycolytic phenotype | ATP production (ALS MNs [1]; SIRT3 lentivirus day 28-31, listed as siRNAs targeting GCN5L1): significant improvements; basal acidification (ALS MNs [3]): reduced; glycolytic capacity (ALS MNs [3]): reduces glycolytic capacity; GCN5L1 knockdown (GCN5L1): 60% |
